These results are taken from US20250275993A1, “GLYCOSYLATION INHIBITORS AS THERAPEUTICS FOR STROKE” (The Regents of the University of California, priority 2022, published 2025).

Structures are written as SMILES.

Data set [1] in a line: ManN stability in wound fluid from S. aureus infected mice. Particulars: up to 24 hours at 37° C. It is filed as in vitro ADME, mouse. The protocol:
To test ManN stability in wound fluid collected from mice with skin infection as described below, 1.5 μl of 5% ManN solution was added to each 200 μl wound fluid which was first diluted 1:1 (v/v) with PBS. At each time point, samples were taken from 37° C. incubator and stored at −80° C. Plasma proteins were precipitated by adding ice cold acetonitrile to plasma: acetonitrile 1:3 (v/v) ratio. Samples were kept over ice for 1 hr and then centrifuged at 12000 g for 10 min at 7° C. to form a pellet. Supernatants were transferred to other tubed, dried down on a Speed Vac and then reconstituted in UltraPure distilled water and filtered through pre-washed Nanosep 3K Omega filters (Pall Corporation). The filtrate was dried down on Speed Vac. The dry samples were dissolved in 100 μl of water and 2 μl plasma or wound fluid sample was subjected to HPLC analysis. Neutral and amino sugars were separated on a Dionex CarboPac PAI column 4 mm×250 mm with 4 mm×50 mm guard column. An isocratic gradient of 19 mM sodium hydroxide with 0.95 mM sodium acetate was used at a flow rate of 1 ml/min with 20 min run. Data was collected using the Dionex ICS-3000 HPLC system with pulsed amperometric detector using standard Quad waveform. ManN was identified and quantified by comparison with monosaccharide standard using Thermo Scientific Chromeleon software. No ManN samples served as negative controls. […]

In data set [2] the test system is brain infarction. The experiment in a line: Middle cerebral artery occlusion (MCAO) stroke model. It is filed as in vivo, mouse.
The test system of data set [3] is β-Glucosidase. The experiment in a line: β-glucosidase activity assay. Format: biochemical, almond. Particulars: up to 2 mM. Here is the method: a-mannosidase activity was measured using substrate p-nitrophenyl α-mannopyranoside (1 mM). Enzyme from Jack Bean (M7257) (final concentration of 0.077 U) was incubated at 37° C. in a final volume of 50 μl of 50 mM potassium phosphate buffer, pH 7.5. α-glucosidase was assayed with substrate p-nitrophenyl a-glucoside (7 mM). Enzyme from Saccharomyces cerevisiae-type 1 (Sigma, G5003) (final concentration of 0.1 U) was incubated at 37° C. in a final volume of 50 μl of PBS, pH 7.5. β-Glucosidase was assayed with substrate 4-nitrophenyl β-D-glucopyranoside (Roche). Enzyme from almond (Sigma, G0395) (final concentration of 0.002 U) was incubated at 37° C. in a final volume of 50 μl of PBS, pH 7.5 […]. The incubation was stopped by addition of an equal volume of acid-based stop solution (R&D systems, 895032). Enzymatic activity was measured at 405 nm. α-glucosidase from Saccharomyces cerevisiae type I (G5003) with p-nitrophenyl α-D-glucopyranoside (Sigma, N1377) as the substrate.

For data set [4] the following is noted: mouse, in vivo, po. Here is the method: Following oral administration, there was a relatively rapid decline in ManN plasma levels. Plasma free ManN levels reached a peak level of −100 nmol/ml plasma at 1 hr. […] 2 hours after oral feeding of 20% ManN, muscle samples were taken from the ischemic legs. A significant amount of ManN reached the ischemic legs, with 0.17+1−0.18 nmol/mg protein of free ManN and 0.91+1−0.24 nmol/mg protein of ManN-6p.
To test ManN stability in wound fluid collected from mice with skin infection as described below, 1.5 μl of 5% ManN solution was added to each 200 μl wound fluid which was first diluted 1:1 (v/v) with PBS. At each time point, samples were taken from 37° C. incubator and stored at −80° C. Plasma proteins were precipitated by adding ice cold acetonitrile to plasma: acetonitrile 1:3 (v/v) ratio. Samples were kept over ice for 1 hr and then centrifuged at 12000 g for 10 min at 7° C. to form a pellet. Supernatants were transferred to other tubed, dried down on a Speed Vac and then reconstituted in UltraPure distilled water and filtered through pre-washed Nanosep 3K Omega filters (Pall Corporation). The filtrate was dried down on Speed Vac. The dry samples were dissolved in 100 μl of water and 2 μl plasma or wound fluid sample was subjected to HPLC analysis. Neutral and amino sugars were separated on a Dionex CarboPac PAI column 4 mm×250 mm with 4 mm×50 mm guard column. An isocratic gradient of 19 mM sodium hydroxide with 0.95 mM sodium acetate was used at a flow rate of 1 ml/min with 20 min run. Data was collected using the Dionex ICS-3000 HPLC system with pulsed amperometric detector using standard Quad waveform. ManN was identified and quantified by comparison with monosaccharide standard using Thermo Scientific Chromeleon software. No ManN samples served as negative controls.

Data set [5] relates to bovine pituitary cells. Description: Bovine pituitary cell proliferation assay. Particulars: alone or in combination with growth factors. Format: cell-based. Here is the method: Proliferation assays with fibroblasts were done in low-glucose DMEM containing 1% FBS, with or without 10 ng/ml bFGF, or 100 ng/ml human EGF and the assay was ended at day 3. ARPE-19 cells were gently lifted with 0.025% trypsin and plated in RtEGM media (Clonetics) containing 2% FBS, L-glutamine, human bFGF and GA-1000. Once cells were attached to plates, serum-free RtEGM media was used to maintain the cultures. For proliferation assays, 1500 human RPE cells were plated into 96-well plates in low-glucose DMEM containing 1% FBS. A673, U87MG, Calu6 and AML12 cells were grown until confluent and were then harvested and re-suspended in appropriate assay media. For proliferation assays, cells were plated at the density of 1000-2000 cells/well in low-glucose DMEM containing 5% FBS or otherwise stated. Bovine pituitary cells (pituitary folliculostellate cells) were isolated as previously described. For proliferation assays with human epidermal keratinocytes, human DMVECs and human dermal fibroblast cells, 1000 cells/well were plated in low-glucose DMEM containing 1% FBS with or without various growth factors. The assay was ended at day 3 for bovine pituitary cells and at day 4 for all the other cell types. […] Four days later, tumor cell growth was measured by the MTS assay (Promega, Madison, WI), a colorimetric assay that measures metabolic activity of viable cells. […]

Turning to `N[C@H](C=O)[C@@H](O)[C@H](O)[C@H](O)CO` [ManN, 2-Amino-2-deoxy-D-mannose], the “loss of free ManN in wound fluid” value in data set [1] is “No significant loss”. In data set [2] (40 mg ManN Day -1, 1, 3), the “histopathological alterations (H&E), Day 4” value was “ameliorates histopathological alterations”. Moreover, the “vascular density (CD31) in cerebral cortex affected by infarct, Day 6” value in data set [2] (40 mg ManN Day -1, 1, 3, 5, p<0.001) is “significantly increased vascular density”. Further, the “infarction area, Day 4 MRI, first and second experiment” value in data set [2] (40 mg ManN oral gavage Day -1 and every 48 hours, 4 animals per group) is “markedly smaller infarction area”. The “overall infarction area, combined analysis” value in data set [2] (4 days post-acute ischemic event, FIG. 12D) is “statistically significant effect of ManN treatment in reducing overall infarction area”. Further, the “TTC staining of coronal slices at Day 4” value in data set [2] (FIG. 13C) is on record as “lack of large regions of white staining”. Moreover, in data set [2] (p<0.001 vs vehicle, FIG. 13B), the “CNS infarct volume at Day 4 (MRI), additional animals” value is listed as “significantly reduced CNS infarct volume”. Further, the “infarct area on Day 2 and Day 4 (MRI images)” value in data set [2] (vs vehicle (H2O), FIG. 13A) is recorded as “Reduction in infarct area is noticeable”. The “effect on β-glucosidase” value in data set [3] is on record as “No effect”. Also, in data set [4], the “plasma ManN after 3 hours relative to peak” value is recorded as “about half of that amount”, the “plasma free ManN peak level” value is given as approximately 100 nmol/ml plasma and the “time of plasma peak level” value was determined as 1 h. In data set [4] (2 h), the “ManN-6p in ischemic leg muscle” value was 0.91+1−0.24 nmol/mg protein and the “free ManN in ischemic leg muscle” value was 0.17+1−0.18 nmol/mg protein. Further, the “proliferation of bovine pituitary cells” value in data set [5] is given as “no increases in proliferation”.
